Measured values from patent US9844556B2, “Preventive/therapeutic method and preventive/therapeutic agent for complications after cataract surgery” (KOWA COMPANY, LTD., priority 2015, dated 2017).

Experiments:
HLEpiC [1] = assay: Inhibitory action on cell migration (Oris Cell Migration plate); format: cell-based, human; settings: about 24 and 48 hours after treatment
Experimental: HLEpiC was diluted with a medium (Epithelial Cell Medium) and dispensed to Poly-L-lysine coated Oris™ Cell Migration 96 well plate, to which a stopper was firmly attached, at 50 μL/well (25000 cells/well) and cultured in a carbon dioxide incubator (37° C., 5% CO2) for 24 hours. The stopper was removed, and after brief washing with the medium, a solution obtained by adding 5 μL of 10 mM Cell Tracker Green Fluorescent Probe (Lonza Walkersville, Inc.) to 4995 μL of the medium was added at 100 μL/well, and the cells were stained in a carbon dioxide incubator (37° C., 5% CO2) for about 30 minutes. After brief washing with the medium, the medium was further added and the cells were cultured in a carbon dioxide incubator (37° C., 5% CO2) for about 30 minutes.
After brief washing with the medium, a test substance, a positive control, a comparative control or the medium (control) at each concentration given below was added at 100 μL/well.
Test substance: Ripasudil with a concentration of […], 100 μM or 1 mM,
Positive control: CD with a concentration of 2 μM,
These were cultured in a carbon dioxide incubator (37° C., 5% CO2). The state of HLEpiC in the Detection Zone in each sample was observed by a confocal laser scanning microscope about 24 hours after the treatment and 48 hours after the treatment.

[2] = system: Human lens epithelial cells (SRA01/04); assay: Action on DNA synthesis capability (BrdU uptake) of human lens epithelial cell line; format: cell-based; settings: 24 hours
Experimental: Human lens epithelial cells (SRA01/04 (Riken Cell Bank)) were cultured using 20% FBS-DMEM medium under conditions of 37° C. and 5% CO2. The concentration of SRA01/04 was adjusted using 2% FBS-DMEM, and the cells were seeded in a 96 Well Plate at 100 μL/well (5000 cells/well) and cultured under conditions of 37° C. and 5% CO2 for 24 hours. The medium was exchanged with 5% FBS-DMEM medium, and TGFβ at 10 ng/mL (final concentration) or Ripasudil at 10, 30 or 100 μM (final concentration) was added to each well, and the cells were cultured for another 24 hours. The uptake rate of 5-bromo-2′-deoxyuridine (BrdU) in the cells was measured using Cell Proliferation ELISA, BrdU (colorimetric) kit (Roche) at a measurement wavelength of 450 nm by Multiskan MS version 8.0 (LABSYSTEMS), and cell proliferation properties were evaluated.

HLEpiC [3] = assay: Reversibility of inhibition of cell migration after removal; format: cell-based, human; settings: for time after removal at which Detection Zone was filled with HLEpiC: then removal
Experimental: After the operation in Example 4, the test substance, the positive control, or the comparative control was removed, and after brief washing with the medium, the medium was added at 100 μL/well, and the cells were cultured in a carbon dioxide incubator (37° C., 5% CO2).

[4] = system: HT-1080 cell-containing collagen gel; assay: Inhibitory action on collagen gel contraction; format: cell-based; design: key: +: a contraction level was almost equal to that of a group to which Ripasudil was not added; ++: contraction was inhibited; +++: contraction was significantly inhibited; settings: HT1080 collagen gel, two or three days
Experimental: HT-1080 cell suspension adjusted to a density of 150000 to 200000 cells/mL with a medium (medium: E'MEM (Sigma)/10% FBS/NEAA/PCSM), and a solution, obtained by mixing A, B and C solutions (A solution: Cellmatrix (Collagen Type I 3 mg/mL), B solution: concentrated culture solution, 10×MEM Hank's culture solution, and C solution: buffer solution for reconstitution) of collagen gel culture kit (Nitta Gelatin Inc.) mixed at a ratio of 8:1:1 and cooling the obtained mixture, were mixed at a ratio of 1.4:1, and the obtained mixture was seeded in a 48 Well Plate at 500 μL/well and gelatinized in a CO2 incubator to produce a cell-containing collagen gel. After gelation, 1 mL of the medium in which Ripasudil was adjusted to 0.1 μM, 1 μM or 10 μM was added on the gel, and an injection needle was inserted between the gel and the wall surface to release the gel from the wall surface, and the gel was incubated to stand in a CO2 incubator. After two or three days, the contraction of the gel was observed, and photos were taken to evaluate the actions of Ripasudil.

With `C[C@H]1CNCCCN1S(=O)(=O)c1cccc2cncc(F)c12` [Ripasudil, 4-fluoro-5-{[(2S)-2-methyl-1,4-diazepan-1-yl]sulfonyl}isoquinoline] the “cell migration into Detection Zone (observation)” value (HLEpiC [1]; 100 μM) was “tendency of inhibition of cell migration”, the “cell migration into Detection Zone (observation)” value (HLEpiC [1]; 1 mM) was “definite inhibitory action on cell migration” and the “DNA synthesis capability (BrdU uptake) of SRA01/04” value ([2]; 30 μM) was “statistically significant decrease”. For the same compound, the “DNA synthesis capability (BrdU uptake) of SRA01/04” value ([2]; 10, 30 or 100 μM) was “dose-dependent inhibitory action”, the “time after removal at which Detection Zone was filled with HLEpiC” value (HLEpiC [3]; 100 μM treatment) was “about 24 hours” and the “state of Detection Zone about 48 hours after removal” value (HLEpiC [3]; 1 mM treatment, about 48 hours after removal) was “not filled with HLEpiC”. The “time after removal at which Detection Zone was filled with HLEpiC” value (HLEpiC [3]; 1 mM treatment) was 116 h, the Inhibition of contraction ([4]; Ripasudil 0.1 μM) was “+” and the Inhibition of contraction ([4]; Ripasudil 1.0 μM) was “++”. For the same compound, the Inhibition of contraction ([4]; Ripasudil 10.0 μM) was “+++”.
